≈ marks a conversion by molar mass, not a printed value. Residues, ends and D or L forms follow the SMILES beside them. *: point of attachment. Biotin = O=C1N[C@H]2[C@H](CS[C@H]2CCCCC(=O)*)N1
Experiments:
guinea pig erythrocytes = experiment: Hemolytic assay, guinea pig erythrocytes; type: cell-based; conditions: 1% v/v, one hour at 37° C.
Procedure: Hemolytic assay. Hemolytic activity of various peptide concentrations was determined by incubation with human, guinea pig or sheep erythrocyte suspensions (final erythrocyte concentration, 1% v/v) for one hour at 37° C. After cooling and centrifugation, the optical density of the supernatants were measured at 540 nm. Peptide concentrations causing 50% hemolysis (EC50) were derived from the dose-response curves.

[1] = system: Escherichia coli ATCC 25922; experiment: Antimicrobial assay (MIC), E. coli; type: cell-based; conditions: overnight at 37° C.
Procedure: Antimicrobial assay. Two bacterial strains (Escherichia coli ATCC 25922 and Enterococcus faecalis ATCC 29212) were inoculated on heart infusion agar with 5% sheep blood and incubated aerobically overnight at 37° C. From the pure cultures, suspensions were made in saline to a density of 0.5 McFarland. These suspensions were diluted ten-fold in Mueller Hinton II broth, resulting in a final inoculum of approximately 10^7 cfu/ml.
Standard 96-well microtiter trays were filled with 100 ill of two-fold dilutions of peptide in physiologic salt solution in each well, resulting in the following concentration range: 4000, 2000, 1000, 500, 250, 125, 62.25, 31.63, 15.82, 7.96 and 0 μg/ml. The trays in column 12 were filled with 200 μl MH II broth (negative control).
Columns 1-11 of the microtiter trays were filled with 100 μl of the final inoculum of the bacterial suspensions, thus diluting the concentrations of the peptide two fold, resulting in the following peptide concentration range in the wells: 2000, 1000, 500, 250, 125, 62.25, 31.63, 15.82, 7.96, 3.98 and 0 μg/ml. In rows B, C and D, 100 μl of the final inoculum of E. coli and, in rows E, F and G, 100 μl of the final inoculum of E. faecalis was pipetted. The final bacterial concentration was approximately 5×10^5 cfu/well. All trays were sealed and incubated overnight at 37° C. After incubation, the microtiter trays were inspected visually for bacterial growth and the absorbance of the cultures at 630 nm (A630) was determined with an ELISA-reader. […] The experiment was performed independently in triplicate. The test was repeated again in triplicate after two days with the final peptide concentration range in the wells: 5000, 2500, 1250, 625, 312.5, 156.25, 78.12, 39.06, 19.58, 9.79, 4.88, 2.44 and 1.22 μg/ml.

CC(C)C[C@H](NC(=O)[C@H](CCC(N)=O)NC(=O)[C@H](CCCCN)NC(=O)CNC(=O)[C@H](CC(C)C)NC(=O)[C@H](Cc1c[nH]c2ccccc12)NC(=O)[C@@H](NC(=O)[C@@H](NC(=O)[C@H](CC(C)C)NC(=O)[C@H](CCCCN)NC(=O)[C@H](C)NC(=O)[C@@H](NC(=O)CNC(=O)[C@H](CCC(N)=O)NC(=O)[C@H](CCCNC(=N)N)NC(=O)[C@H](C)NC(=O)CNC(=O)[C@H](CCC(=O)O)NC(=O)CCCC[C@@H]1SC[C@@H]2NC(=O)N[C@@H]21)[C@@H](C)O)[C@@H](C)O)[C@@H](C)O)C(=O)NCC(=O)N[C@H](C(=O)N[C@@H](C)C(=O)NCC(=O)N[C@@H](CCCCN)C(=O)N[C@@H](CCCCN)C(=O)N[C@@H](CC(C)C)C(=O)N[C@@H](CCC(=O)O)C(=O)N[C@@H](CC(N)=O)C(=O)N[C@@H](CCCCN)C(=O)N[C@@H](CO)C(=O)N[C@@H](CCCCN)C(=O)N[C@H](C(=O)N[C@@H](Cc1c[nH]c2ccccc12)C(=O)N[C@@H](Cc1ccccc1)C(=O)NCC(=O)N[C@@H](C)C(=O)N[C@@H](Cc1ccc(O)cc1)C(=O)N[C@@H](C)C(N)=O)[C@@H](C)O)[C@@H](C)O [194-230] (Biotin-EGARQGTAKLTTWLGKQLGTAGKKLENKSKTWFGAYA-NH2)
Hemolysis (peptide concentration causing 50% hemolysis) (guinea pig erythrocytes): 0.25 mg/mL | MIC (minimal inhibitory concentration needed to inhibit bacterial growth) [1]: 93 µg/mL (≈ 22 µM)

CC[C@H](C)[C@H](NC(=O)[C@H](CCCNC(=N)N)NC(=O)[C@H](CC(C)C)NC(=O)[C@H](CCC(N)=O)NC(=O)[C@H](CCCNC(=N)N)NC(=O)CNC(=O)[C@H](CC(C)C)NC(=O)[C@H](Cc1c[nH]c2ccccc12)NC(=O)[C@H](CO)NC(=O)[C@@H](NC(=O)[C@@H](NC(=O)[C@H](CCCNC(=N)N)NC(=O)[C@H](C)NC(=O)[C@H](C)NC(=O)CNC(=O)CCCC[C@@H]1SC[C@@H]2NC(=O)N[C@@H]21)C(C)C)[C@@H](C)O)C(=O)N[C@@H](C)C(=O)NCC(=O)N[C@@H](CCCCN)C(=O)N[C@@H](CCCNC(=N)N)C(=O)N[C@@H](CC(C)C)C(=O)N[C@@H](CCC(=O)O)C(=O)NCC(=O)N[C@@H](CCCNC(=N)N)C(=O)N[C@@H](CO)C(=O)N[C@@H](CCCCN)C(N)=O [196-220]
Hemolysis (peptide concentration causing 50% hemolysis) (guinea pig erythrocytes): 0.16 mg/mL | MIC (minimal inhibitory concentration needed to inhibit bacterial growth) [1]: 25 µg/mL (≈ 8.35 µM)

CC[C@H](C)[C@H](NC(=O)[C@H](CCCNC(=N)N)NC(=O)[C@H](CC(C)C)NC(=O)[C@H](CCC(N)=O)NC(=O)[C@H](CCCNC(=N)N)NC(=O)CNC(=O)[C@H](CC(C)C)NC(=O)[C@H](Cc1c[nH]c2ccccc12)NC(=O)[C@H](CO)NC(=O)[C@@H](NC(=O)[C@@H](NC(=O)[C@H](CCCNC(=N)N)NC(=O)CCCC[C@@H]1SC[C@@H]2NC(=O)N[C@@H]21)C(C)C)[C@@H](C)O)C(=O)N[C@@H](C)C(=O)NCC(=O)N[C@@H](CCCCN)C(=O)N[C@@H](CCCNC(=N)N)C(=O)N[C@@H](CC(C)C)C(=O)N[C@@H](CCC(=O)O)C(=O)NCC(=O)N[C@@H](CCCNC(=N)N)C(=O)N[C@@H](CO)C(=O)N[C@@H](CCCCN)C(N)=O [199-220]
Hemolysis (peptide concentration causing 50% hemolysis) (guinea pig erythrocytes): 0.18 mg/mL | MIC (minimal inhibitory concentration needed to inhibit bacterial growth) [1]: 23 µg/mL (≈ 8.23 µM)

CC[C@H](C)[C@H](NC(=O)[C@H](CCCNC(=N)N)NC(=O)[C@H](CC(C)C)NC(=O)[C@H](CCC(N)=O)NC(=O)[C@H](CCCNC(=N)N)NC(=O)CNC(=O)[C@H](CC(C)C)NC(=O)[C@H](Cc1c[nH]c2ccccc12)NC(=O)[C@H](CO)NC(=O)CCCC[C@@H]1SC[C@@H]2NC(=O)N[C@@H]21)C(=O)N[C@@H](C)C(=O)NCC(=O)N[C@@H](CCCCN)C(=O)N[C@@H](CCCNC(=N)N)C(=O)N[C@@H](CC(C)C)C(=O)N[C@@H](CCC(=O)O)C(=O)NCC(=O)N[C@@H](CCCNC(=N)N)C(=O)N[C@@H](CO)C(=O)N[C@@H](CCCCN)C(N)=O [202-220]
Hemolysis (peptide concentration causing 50% hemolysis) (guinea pig erythrocytes): >0.33 mg/mL | MIC (minimal inhibitory concentration needed to inhibit bacterial growth) [1]: 179 µg/mL (≈ 73.5 µM)
